Experimental data from publication PMC5349880, “P-glycoprotein-mediated chemoresistance is reversed by carbonic anhydrase XII inhibitors” (Oncotarget, 2016).

Columns and labels:
MDA-MB-231 cells = assay: Cell viability (neutral red); assay type: cell-based, human; conditions: MDA-MB-231; doxorubicin alone 72 h; IC50 ratio vs doxorubicin + tariquidar 25 nM
SaOS/DX cells = assay: Cell viability (neutral red); assay type: cell-based, human; conditions: SaOS/DX; doxorubicin alone 72 h; IC50 ratio vs doxorubicin + tariquidar 25 nM
U2OS cells = assay: Cell viability (neutral red); assay type: cell-based, human; conditions: doxorubicin alone 72 h, IC50 ratio vs doxorubicin + tariquidar 25 nM
[1] = Hematochemical parameters of tumor-bearing animals; conditions: doxorubicin 5 mg/kg i.v. alone
A549/DX cells = assay: Cell viability (neutral red); assay type: cell-based, human; conditions: A549/DX; doxorubicin alone 72 h; IC50 ratio vs doxorubicin + tariquidar 25 nM
HT29 cells = assay: Cell viability (neutral red); assay type: cell-based, human; conditions: doxorubicin alone 72 h, IC50 ratio vs doxorubicin + tariquidar 25 nM
HT29/DX cells = assay: Cell viability (neutral red); assay type: cell-based, human; conditions: HT29/DX; doxorubicin alone 72 h; IC50 ratio vs doxorubicin + tariquidar 25 nM
SKBR3 cells = assay: Cell viability (neutral red); assay type: cell-based, human; conditions: doxorubicin alone 72 h, IC50 ratio vs doxorubicin + tariquidar 25 nM
MCF7 cells = assay: Cell viability (neutral red); assay type: cell-based, human; conditions: doxorubicin alone 72 h, IC50 ratio vs doxorubicin + tariquidar 25 nM
SaOS cells = assay: Cell viability (neutral red); assay type: cell-based, human; conditions: doxorubicin alone 72 h, IC50 ratio vs doxorubicin + tariquidar 25 nM
U2OS/DX cells = assay: Cell viability (neutral red); assay type: cell-based, human; conditions: U2OS/DX; doxorubicin alone 72 h; IC50 ratio vs doxorubicin + tariquidar 25 nM
A549 cells = assay: Cell viability (neutral red); assay type: cell-based, human; conditions: A549; doxorubicin alone 72 h; IC50 ratio vs doxorubicin + tariquidar 25 nM
T74D cells = assay: Cell viability (neutral red); assay type: cell-based, human; conditions: T74D; doxorubicin alone 72 h; IC50 ratio vs doxorubicin + tariquidar 25 nM
JC cells = assay: Cell viability (neutral red); assay type: cell-based, murine; conditions: JC; doxorubicin alone 72 h; IC50 ratio vs doxorubicin + tariquidar 25 nM
TUBO cells = assay: Cell viability (neutral red); assay type: cell-based, murine; conditions: TUBO; doxorubicin alone 72 h; IC50 ratio vs doxorubicin + tariquidar 25 nM

`COc1cccc2c1C(=O)c1c(O)c3c(c(O)c1C2=O)C[C@@](O)(C(=O)CO)C[C@@H]3O[C@H]1C[C@H](N)[C@H](O)[C@H](C)O1` [dox, doxorubicin, reference compound] showed a Rf dox (MDA-MB-231 cells) of 4.55, a Rf dox (SaOS/DX cells) of 14.97 and a Rf dox (U2OS cells) of 1.05. It also gave an ALT [1] of 37 ± 16 U/l, an AST [1] of 288 ± 72 U/l and a CPK [1] of 673 ± 172 U/l. The Creatinine [1] was 0.029 ± 0.017 mg/L, the LDH [1] was 6272 ± 812 U/l and the Rf dox (A549/DX cells) was 4.45. It also gave a Rf dox (HT29 cells) of 1.39, a Rf dox (HT29/DX cells) of 4.26 and a Rf dox (SKBR3 cells) of 2.19. It also gave a Rf dox (MCF7 cells) of 1.32, a Rf dox (SaOS cells) of 1.43 and a Rf dox (U2OS/DX cells) of 15.44. The Rf dox (A549 cells) was 1.31, the Rf dox (T74D cells) was 0.98 and the Rf dox (JC cells) was 7.61. It also gave a Rf dox (TUBO cells) of 4.23.
